Measurements taken from patent publication US20150209373A1, “Progesterone Receptor Modulators for Use in Preventing or Treating Androgen Mediated Diseases” (PregLem SA, priority 2012, published 2015).

Assays:
mice [1] = assay: 4 week oral toxicity study with UPA in mice - organ weights; assay type: in vivo; conditions: 4 week oral toxicity study in mice
Description: (§1) During a 104 week rat carcinogenicity assay, we observed seminal vesicles and prostate contraction at dose-levels of 1 (seminal vesicles, only), 3 and 10 mg/kg/day (PGL09-005). Similarly, during 4 and 26 week assays in the mouse, decreases in epididymidis weights were recorded at dose-levels ranging between 15 and 300 mg/kg/day (Tables 1 and 2). Ulipristal Acetate Anti-Androgenic Effect in a 4 Week Oral Toxicity Study in Mice

mice [2] = assay: 26 week oral carcinogenicity study with UPA in mice - organ weights; assay type: in vivo; conditions: 26 week oral carcinogenicity study in mice
Description: as §1, with “a 26” for “a 4”, “Oral Carcinogenicity” for “Oral Toxicity”

rat = assay: 104 week rat carcinogenicity assay (PGL09-005); assay type: in vivo; conditions: 104 weeks
Description: as §1, with “2).” for “2). Ulipristal Acetate Anti-Androgenic Effect in a 4 Week Oral Toxicity Study in Mice”

progesterone receptor = biological target: T1, progesterone receptor (Homo sapiens, UniProt P06401); assay: in vitro nuclear receptor selectivity profile - progesterone receptor; assay type: binding
T1 sequence (P06401 1-933): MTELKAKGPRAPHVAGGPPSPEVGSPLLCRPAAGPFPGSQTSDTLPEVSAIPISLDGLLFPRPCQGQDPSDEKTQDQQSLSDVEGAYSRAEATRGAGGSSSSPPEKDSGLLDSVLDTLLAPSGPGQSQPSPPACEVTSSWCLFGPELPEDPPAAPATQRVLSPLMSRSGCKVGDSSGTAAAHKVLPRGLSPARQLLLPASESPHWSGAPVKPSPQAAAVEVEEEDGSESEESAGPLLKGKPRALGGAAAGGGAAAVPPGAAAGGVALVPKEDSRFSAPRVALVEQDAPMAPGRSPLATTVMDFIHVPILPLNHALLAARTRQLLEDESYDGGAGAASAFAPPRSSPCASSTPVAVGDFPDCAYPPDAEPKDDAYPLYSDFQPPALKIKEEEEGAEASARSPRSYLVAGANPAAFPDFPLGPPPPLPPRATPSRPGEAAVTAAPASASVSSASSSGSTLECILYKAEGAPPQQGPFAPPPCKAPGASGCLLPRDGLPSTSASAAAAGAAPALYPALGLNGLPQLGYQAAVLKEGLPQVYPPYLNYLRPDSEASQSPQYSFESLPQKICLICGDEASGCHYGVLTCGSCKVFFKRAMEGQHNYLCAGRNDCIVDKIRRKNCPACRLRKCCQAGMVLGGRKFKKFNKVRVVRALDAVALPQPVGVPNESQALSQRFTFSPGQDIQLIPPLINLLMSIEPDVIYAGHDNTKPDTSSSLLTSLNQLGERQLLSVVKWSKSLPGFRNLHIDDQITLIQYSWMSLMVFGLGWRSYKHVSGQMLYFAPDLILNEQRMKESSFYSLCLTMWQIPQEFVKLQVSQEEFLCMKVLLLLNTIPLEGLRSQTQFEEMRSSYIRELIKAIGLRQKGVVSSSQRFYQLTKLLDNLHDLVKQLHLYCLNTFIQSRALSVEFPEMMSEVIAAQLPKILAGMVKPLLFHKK

glucocorticoid receptor = biological target: T2, glucocorticoid receptor (Homo sapiens, UniProt P04150); assay: in vitro nuclear receptor selectivity profile - glucocorticoid receptor; assay type: binding
T2 sequence (P04150 1-777): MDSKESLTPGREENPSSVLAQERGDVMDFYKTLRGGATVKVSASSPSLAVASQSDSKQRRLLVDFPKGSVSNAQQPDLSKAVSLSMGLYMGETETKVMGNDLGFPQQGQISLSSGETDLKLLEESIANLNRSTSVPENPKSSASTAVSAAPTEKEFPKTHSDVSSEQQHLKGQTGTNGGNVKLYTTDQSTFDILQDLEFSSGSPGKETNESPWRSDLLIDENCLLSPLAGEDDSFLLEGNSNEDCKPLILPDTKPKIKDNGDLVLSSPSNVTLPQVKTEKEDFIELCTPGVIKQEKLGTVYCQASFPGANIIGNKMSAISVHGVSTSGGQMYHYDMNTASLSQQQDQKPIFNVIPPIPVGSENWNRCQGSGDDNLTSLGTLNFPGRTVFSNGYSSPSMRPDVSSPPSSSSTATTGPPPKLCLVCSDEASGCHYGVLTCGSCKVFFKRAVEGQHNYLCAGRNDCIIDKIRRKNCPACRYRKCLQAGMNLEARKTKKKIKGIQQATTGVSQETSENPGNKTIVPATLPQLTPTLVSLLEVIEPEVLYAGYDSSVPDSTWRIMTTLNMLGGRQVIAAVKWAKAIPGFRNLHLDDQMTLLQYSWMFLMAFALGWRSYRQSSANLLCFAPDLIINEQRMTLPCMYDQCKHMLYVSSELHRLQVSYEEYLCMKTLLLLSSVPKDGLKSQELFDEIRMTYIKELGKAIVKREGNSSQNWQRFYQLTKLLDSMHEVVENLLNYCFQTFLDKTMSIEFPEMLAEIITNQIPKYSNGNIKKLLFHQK

androgen receptor = biological target: T3, androgen receptor (Homo sapiens, UniProt P10275); assay: in vitro nuclear receptor selectivity profile - androgen receptor; assay type: binding
T3 sequence (P10275 1-920): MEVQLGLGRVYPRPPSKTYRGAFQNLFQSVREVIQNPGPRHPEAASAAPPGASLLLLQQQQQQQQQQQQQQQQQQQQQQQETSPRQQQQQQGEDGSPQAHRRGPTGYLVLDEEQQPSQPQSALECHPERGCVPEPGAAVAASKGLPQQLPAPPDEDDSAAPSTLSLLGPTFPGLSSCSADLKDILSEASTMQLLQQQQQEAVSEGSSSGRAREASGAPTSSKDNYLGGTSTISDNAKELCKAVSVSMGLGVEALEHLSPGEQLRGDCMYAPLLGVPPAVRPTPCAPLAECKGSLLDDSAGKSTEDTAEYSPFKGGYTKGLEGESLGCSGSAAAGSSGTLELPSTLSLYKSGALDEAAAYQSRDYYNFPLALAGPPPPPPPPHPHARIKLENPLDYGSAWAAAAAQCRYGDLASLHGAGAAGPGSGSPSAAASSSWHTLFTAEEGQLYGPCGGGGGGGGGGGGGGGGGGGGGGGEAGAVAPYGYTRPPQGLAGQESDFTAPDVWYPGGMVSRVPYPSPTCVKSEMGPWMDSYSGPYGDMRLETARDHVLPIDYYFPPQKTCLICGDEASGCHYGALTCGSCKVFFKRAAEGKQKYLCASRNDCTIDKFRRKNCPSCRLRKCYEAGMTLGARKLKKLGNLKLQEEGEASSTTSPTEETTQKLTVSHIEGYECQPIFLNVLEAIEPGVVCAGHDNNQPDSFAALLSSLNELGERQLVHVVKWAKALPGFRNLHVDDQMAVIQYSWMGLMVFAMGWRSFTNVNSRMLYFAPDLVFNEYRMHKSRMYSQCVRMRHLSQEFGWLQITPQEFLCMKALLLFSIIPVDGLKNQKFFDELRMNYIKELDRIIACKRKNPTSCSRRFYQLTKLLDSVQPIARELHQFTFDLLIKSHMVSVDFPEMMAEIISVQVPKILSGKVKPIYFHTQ

oestrogen receptors = assay: in vitro nuclear receptor selectivity profile - oestrogen receptors; assay type: binding

affinity for the progesterone receptor (progesterone receptor): high affinity
affinity for the glucocorticoid receptor (glucocorticoid receptor): high affinity
affinity for the androgen receptor (androgen receptor): much lower affinity
affinity for the oestrogen receptors (oestrogen receptors): no affinity
Structure (SMILES): CC(=O)O[C@]1(C(C)=O)CC[C@H]2[C@@H]3CCC4=CC(=O)CCC4=C3[C@@H](c3ccc(N(C)C)cc3)C[C@@]21C [UPA, Ulipristal acetate]
interpretation of decrease in organ weight (mice [1]): suggestive of anti-androgenic like effects
interpretation of decrease in organ weight (mice [2]): suggestive of anti-androgenic like effects
seminal vesicles finding (rat; dose-levels of 1, 3 and 10 mg/kg/day): contraction
prostate finding (rat; dose-levels of 3 and 10 mg/kg/day (not at 1 mg/kg/day)): contraction
in vivo anti-androgenic activity (in vivo activity profile): anti-androgenic effects
in vivo anti-glucocorticoid activity (in vivo activity profile): no significant anti-glucocorticoid effects
